According to patent US7378375B1, “Substituted pyridine herbicides” (Syngenta Crop Protection, Inc., priority 2000, dated 2008):

Tests used:
[1] = test system: Monocotyledonous and dicotyledonous test plants; test: Herbicidal action before emergence of the plants (pre-emergence action), greenhouse pot test, 9-level rating after 4 weeks; type: in vivo; set-up: key: 9-level scale: 1 = complete damage, 9 = no effect; settings: 250 g/ha, rated after 4 weeks, 9-level scale
Method: Herbicidal Action Before Emergence of the Plants (Pre-Emergence Action)
Monocotyledonous and dicotyledonous test plants are sown in standard soil in pots. Immediately after sowing, the test substances are sprayed on at an optimum dosage (500 l of water/ha) as an aqueous suspension (prepared from a wettable powder (example F3, b) according to WO 97/34485) or emulsion (prepared from an emulsion concentrate (example F1, c) according to WO 97/34485). The test plants are then grown under optimum conditions in a greenhouse.
After a test period of 4 weeks, the test is evaluated using a 9-level scale of ratings (1=complete damage, 9=no effect). Ratings of 1 to 4 (in particular 1 to 3) mean good to very good herbicidal action.

[2] = test system: Monocotyledonous and dicotyledonous test plants; test: Post-emergence herbicidal action, greenhouse pot test, sprayed at the 2- to 3-leaf stage, 9-level rating after 2 to 3 weeks; type: in vivo; set-up: key: 9-level scale: 1 = complete damage, 9 = no effect; settings: 250 g/ha, rated after 2 to 3 weeks, 9-level scale
Summary of the method: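 Plants grown in standard soil in pots; test substances sprayed at the 2- to 3-leaf stage at optimum dosage (500 l water/ha) as aqueous suspension or emulsion from formulated concentrates. Plants then kept in the greenhouse under optimum conditions; rated after 2 to 3 weeks on a 9-level scale (1=complete damage, 9=no effect).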

| Structure (SMILES) | Pre-emergence action rating, Abutilon [1] | Pre-emergence action rating, Amaranthus [1] | Pre-emergence action rating, Digitaria [1] | Pre-emergence action rating, Echino. [1] | Pre-emergence action rating, Panicum [1] | Post-emergence action rating, Abutilon [2] | Post-emergence action rating, Amaranth [2] | Post-emergence action rating, Chenop. [2] | Post-emergence action rating, Digitaria [2] | Post-emergence action rating, Echino. [2] | Post-emergence action rating, Ipopur. [2] | Post-emergence action rating, Panicum [2] | Post-emergence action rating, Xanth. [2] | Pre-emergence action rating, Chenop. [1] |
| --- | --- | --- | --- | --- | --- | --- | --- | --- | --- | --- | --- | --- | --- | --- |
| COCCOCc1nc(C(F)(F)F)ccc1C(=O)c1cnn(C)c1OS(=O)(=O)c1ccc(C)cc1 [A10-C29] | 1 | 1 | 2 | 1 | 2 | 2 | 2 | 1 | 3 | 3 | 1 | 2 | 2 |  |
| CCOCCOCc1nc(C(F)(F)F)ccc1C(=O)C1=C(O)C2CCC(C2)C1=O (centres unmarked) [A11-B52] | 1 | 2 | 1 | 1 | 1 | 2 | 1 | 1 | 1 | 2 | 2 | 1 | 2 | 1 |
| CCOCCOCc1nc(C(F)(F)F)ccc1C(=O)c1cnn(C)c1O [A11-C5] | 1 | 1 | 2 | 1 | 1 | 2 | 2 | 1 | 2 | 2 | 2 | 1 | 2 | 1 |
| CCOCCOCc1nc(C(F)(F)F)ccc1C(=O)c1cnn(C)c1OS(C)(=O)=O [A11-C28] | 2 | 1 | 2 | 1 | 2 | 3 | 2 | 1 | 4 | 4 | 3 | 3 | 3 | 1 |
| C#CCOCc1nc(C(F)(F)F)ccc1C(=O)C1=C(O)C2CCC(C2)C1=O (centres unmarked) [A18-B52] | 2 | 2 | 1 | 1 | 1 | 1 | 1 | 1 | 1 | 2 | 2 | 1 | 2 |  |
| C=CCOCc1nc(C(F)(F)F)ccc1C(=O)C1=C(O)C2CCC(C2)C1=O (centres unmarked) [A19-B52] | 1 | 2 | 1 | 1 | 1 | 1 | 1 | 1 | 1 | 2 | 1 | 1 | 2 |  |
| CC#CCOCc1nc(C(F)(F)F)ccc1C(=O)C1=C(O)C2CCC(C2)C1=O (centres unmarked) [A20-B52] | 3 | 3 | 1 | 1 | 1 | 2 | 2 | 1 | 2 | 2 | 2 | 1 | 2 |  |
| CC#CCOCc1nc(C(F)(F)F)ccc1C(=O)c1cnn(C)c1O [A20-C5] | 1 | 1 | 2 | 2 | 1 | 3 | 2 | 1 | 3 | 4 | 3 | 2 | 3 | 1 |
| O=C(C1=C(O)C2CCC(C2)C1=O)c1ccc(C(F)(F)F)nc1COC1COC1 (centres unmarked) [A24-B52] | 1 | 1 | 1 | 1 | 1 | 2 | 2 | 1 | 2 | 2 | 2 | 2 | 2 | 1 |
| O=C(C1=C(O)C2CCC(C2)C1=O)c1ccc(C(F)(F)F)nc1COC1CCCCC1 (centres unmarked) [A27-B52] | 4 | 1 | 2 | 3 | 1 | 3 | 2 | 5 | 2 | 2 | 4 | 1 | 2 | 3 |
| CCN(CC)CC.O=C(C1=C(O)C2CCC(C2)C1=O)c1ccc(C(F)(F)F)nc1COC1CCCCO1 (centres unmarked) [A28-B52 (Et3NH+)] | 3 | 1 | 2 | 2 | 1 | 2 | 2 | 1 | 2 | 2 | 2 | 1 | 3 |  |
| O=C(C1=C(O)C2CCC(C2)C1=O)c1ccc(C(F)(F)F)nc1COC1CCCCO1 (centres unmarked) [A28-B52] | 2 | 3 | 2 | 2 | 1 | 2 | 1 | 1 | 2 | 2 | 4 | 1 | 3 |  |
| O=C(C1=C(O)C2CCC(C2)C1=O)c1ccc(C(F)(F)F)nc1COCC1CC1 (centres unmarked) [A56-B52] | 3 | 1 | 2 | 1 | 1 | 2 | 1 | 1 | 2 | 2 | 2 | 1 | 2 | 1 |
